Experiment [1] concerns A375 melanoma cell with BRAF V600E mutation. In words: A375 cell proliferation assay (counter screen). The experiment is classed as cell-based, human. To be noted: Homo sapiens, A-375, A375 cells, 72 hours treatment, CellTiter96, read-out: anti-proliferation activity A375 BRAF V600E, IC50 ranking. The essentials:
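A375 cells (BRAF V600E) seeded at 2000 cells/well in DMEM with 10% FBS, settled overnight at 37° C, 5% CO2, then exposed to increasing compound concentrations for 72 hours. Viability read by MTS-type CellTiter96 AQueous reagent, absorbance at 490 nm after 2–4 hours.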

In the next experiment the target is T1, MET kinase (Homo sapiens, UniProt P08581).
T1 construct: purchased SignalChem
As to the kind of experiment: MET kinase assay (AlphaScreen, counter screen). In kind it is biochemical. The conditions noted are these: read-out: Ranking of IC50 values, MET. The method, boiled down: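 Recombinant MET kinase (1 ng) phosphorylated biotinylated poly(Glu4:Tyr1) with […] ATP (so in the source) in MOPS pH 7.0 buffer with 10 mM MgCl2, 45 min at 30 °C, stopped with EDTA. Product read by AlphaScreen; IC50 from serial dilutions run in duplicate.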
A general note: Bead proximity is the source of the signal in Alpha formats.

In experiment [2] the test system is THP-1 human acute monocytic leukemia cell with NRAS G12D mutation. As to the kind of experiment: THP-1 cell proliferation assay (counter screen). In kind it is cell-based. The conditions noted are these: Homo sapiens, THP-1 cells, 72 hours treatment, CellTiter96, read-out: anti-proliferation activity THP-1 NRAS N12D, IC50 ranking. The essentials:
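THP-1 cells (NRAS G12D, growth independent of class III RTK signaling) seeded at 5000 cells/well overnight, then exposed to increasing compound concentrations for 72 h at 37° C, 5% CO2. Viability read by CellTiter96 AQueous One reagent (2–4 h) as absorbance at 490 nm.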

Experiment [3] deals with HCC827 NSCLC cell with EGFR exon 19 deletion mutation. As to the kind of experiment: HCC827 cell proliferation assay (counter screen). In kind it is cell-based, human. The conditions noted are these: Homo sapiens, HCC827 cells, 72 hours treatment, CellTiter96, read-out: anti-proliferation activity HCC827 EGFR Exon19 del, IC50 ranking. The essentials: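 HCC827 cells (EGFR exon 19 deletion) were seeded at 8000 cells/well in RPMI1640 with 10% FBS, then exposed to increasing compound concentrations for 72 h at 37 °C. Viability was read by CellTiter96 AQueous One (MTS), absorbance 490 nm after 2–4 h.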
On the technique in general: The purpose of a counterscreen is to sort out artefacts and off-target activity.

Experiment [4] deals with Molm-14 human acute myeloid leukemia cell with FLT3-ITD mutation. In words: Molm-14 cell proliferation assay (CellTiter 96). In kind it is cell-based. To be noted: Homo sapiens; Molm-14 cells, 72 hours treatment, CellTiter96; read-out: anti-proliferation activity Molm-14 (FLT3-ITD), IC50 ranking. The method, boiled down:
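Molm-14 (FLT3-ITD AML) cells in RPMI 1640 with 10% heat-inactivated FBS were seeded at 25000 cells/well, incubated overnight at 37° C, 5% CO2, then treated with increasing compound concentrations for 72 hours. Viability was read as absorbance at 490 nm after 2˜4 hours with CellTiter96 AQueous One reagent.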

Experiment [5] deals with MV4-11 human acute myeloid leukemia cell with FLT3-ITD mutation. As to the kind of experiment: MV4-11 cell proliferation assay (CellTiter 96). The experiment is classed as cell-based. The conditions noted are these: Homo sapiens, MV4-11, 72 h, MV4-11 cells, 72 hours treatment, CellTiter96; read-out: anti-proliferation activity MV4-11 (FLT3-ITD), IC50 ranking. The essentials: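 Cells seeded at 6500/well in IMDM with 10% heat-inactivated FBS, left overnight at 37 °C, 5% CO2, then exposed to increasing compound concentrations for 72 h. Viability read as absorbance at 490 nm after 2–4 h with CellTiter96 AQueous One reagent.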

T1 sequence (P08581 25-1390): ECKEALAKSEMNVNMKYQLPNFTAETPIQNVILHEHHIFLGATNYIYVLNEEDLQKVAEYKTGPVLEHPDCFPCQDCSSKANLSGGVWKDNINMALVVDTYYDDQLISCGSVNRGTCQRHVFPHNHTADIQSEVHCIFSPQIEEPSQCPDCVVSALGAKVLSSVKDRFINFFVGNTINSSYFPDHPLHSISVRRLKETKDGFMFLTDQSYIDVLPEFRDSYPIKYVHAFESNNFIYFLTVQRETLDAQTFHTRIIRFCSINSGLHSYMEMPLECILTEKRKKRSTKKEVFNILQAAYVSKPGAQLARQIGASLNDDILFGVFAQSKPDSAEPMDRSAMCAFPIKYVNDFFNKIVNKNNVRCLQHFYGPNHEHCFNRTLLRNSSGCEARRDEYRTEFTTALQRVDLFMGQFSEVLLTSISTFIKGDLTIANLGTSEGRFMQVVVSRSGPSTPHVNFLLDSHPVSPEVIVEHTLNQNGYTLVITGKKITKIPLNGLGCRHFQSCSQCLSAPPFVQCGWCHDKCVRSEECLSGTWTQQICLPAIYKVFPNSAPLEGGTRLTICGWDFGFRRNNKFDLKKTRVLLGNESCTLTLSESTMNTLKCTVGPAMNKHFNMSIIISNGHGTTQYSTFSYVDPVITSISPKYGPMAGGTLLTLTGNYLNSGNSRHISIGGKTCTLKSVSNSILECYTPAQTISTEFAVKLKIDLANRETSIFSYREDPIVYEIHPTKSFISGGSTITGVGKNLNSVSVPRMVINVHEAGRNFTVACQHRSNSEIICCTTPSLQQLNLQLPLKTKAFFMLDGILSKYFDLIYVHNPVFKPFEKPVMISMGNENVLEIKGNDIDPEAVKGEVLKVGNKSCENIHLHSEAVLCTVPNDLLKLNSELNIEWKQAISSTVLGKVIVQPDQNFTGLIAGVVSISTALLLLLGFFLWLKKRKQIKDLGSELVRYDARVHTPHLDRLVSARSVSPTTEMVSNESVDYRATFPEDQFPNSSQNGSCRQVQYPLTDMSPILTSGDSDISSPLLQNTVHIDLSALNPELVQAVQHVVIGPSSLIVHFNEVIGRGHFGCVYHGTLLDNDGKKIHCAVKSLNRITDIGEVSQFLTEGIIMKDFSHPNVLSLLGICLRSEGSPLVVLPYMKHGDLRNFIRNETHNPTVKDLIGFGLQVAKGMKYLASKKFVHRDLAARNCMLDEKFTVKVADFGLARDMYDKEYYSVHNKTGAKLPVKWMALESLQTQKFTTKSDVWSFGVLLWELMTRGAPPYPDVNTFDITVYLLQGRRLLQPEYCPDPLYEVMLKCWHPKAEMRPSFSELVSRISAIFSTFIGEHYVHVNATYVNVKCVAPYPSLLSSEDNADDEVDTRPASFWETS

On to `Cc1n[nH]c2cc(-c3n[nH]c4c3Cc3sc(-c5ccc(CN6CCOCC6)cc5)cc3-4)ccc12` [Compound 81, 4-(4-(3-(3-methyl-1H-indazol-6-yl)-1,4-dihydro-thieno[2′,3′:4,5]cyclopenta [1,2-c]pyrazol-6-yl)benzyl)morpholine], for which the IC50 in experiment [1] was 1000 to 10000 nM; at MET kinase, greater than 1000 nM; in experiment [2], 1000 to 10000 nM; in experiment [3] it was greater than 10000 nM; in experiment [4], 300 to 1000 nM; in experiment [5], 100 to 300 nM.

For `Cn1ncc2ccc(-c3n[nH]c4c3Cc3sc(-c5ccc(N6CCOCC6)nc5)cc3-4)cc21` [Compound 82, 4-(5-(3-(1-methyl-1H-indazol-6-yl)-1,4-dihydro-thieno[2′,3′:4,5]cyclopenta [1,2-c]pyrazol-6-yl)pyridin-2-yl)morpholine], the IC50 is 1000 to 10000 nM in experiment [1]; greater than 1000 nM at MET kinase; greater than 10000 nM in experiment [2]; greater than 10000 nM in experiment [3]; 300 to 1000 nM in experiment [4]; 100 to 300 nM in experiment [5].

On to `CN1CCN(Cc2ccc(-c3cc4c(s3)Cc3c(-c5ccc6cn[nH]c6c5)n[nH]c3-4)cc2)CC1` [Compound 83, 3-(1H-indazol-6-yl)-6-(4-((4-methylpiperazin-1-yl)methyl)phenyl)-1,4-dihydrothieno[2′,3′:4,5] cyclopenta[1,2-c]pyrazole], for which the IC50 in experiment [1] is greater than 10000 nM; at MET kinase it was 300 to 1000 nM; in experiment [2] it was greater than 10000 nM; in experiment [3], greater than 10000 nM; in experiment [4], less than 30 nM; in experiment [5] it was less than 30 nM.

As for `CN1CCN(Cc2ccc(-c3cc4c(s3)Cc3c(-c5ccc6cnn(C)c6c5)n[nH]c3-4)cc2)CC1` [Compound 84, 3-(1-methyl-1H-indazol-6-yl)-6-(4-((4-methylpiperazin-1-yl)methyl)phenyl)-1,4-dihydrothieno [2′,3′:4,5]cyclopenta [1,2-c]pyrazole], the IC50 in experiment [1] was greater than 10000 nM; at MET kinase, greater than 1000 nM; in experiment [2], greater than 10000 nM; in experiment [3], greater than 10000 nM; in experiment [4], less than 30 nM; in experiment [5] it was less than 30 nM.

With `CN1CCN(c2ccc(-c3cc4c(s3)Cc3c(-c5ccc6cnn(C)c6c5)n[nH]c3-4)cn2)CC1` [Compound 85, 3-(1-methyl-1H-indazol-6-yl)-6-(6-(4-methyl-piperazin-1-yl)pyridin-3-yl)-1,4-dihydrothieno [2′,3′:4,5]cyclopenta [1,2-c]pyrazole], the IC50 in experiment [1] was 1000 to 10000 nM; on MET kinase, 300 to 1000 nM; in experiment [2] it was greater than 10000 nM; in experiment [3], greater than 10000 nM; in experiment [4], 300 to 1000 nM; in experiment [5] it was less than 30 nM.

For the compound `Cn1ncc2ccc(-c3n[nH]c4c3Cc3sc(-c5ccnc(Cl)c5)cc3-4)cc21` [Compound 86, 6-(2-chloropyridin-4-yl)-3-(1-methyl-1H-indazol-6-yl)-1,4-dihydrothieno [2′,3′:4,5]cyclopenta [1,2-c]pyrazole], the IC50 was greater than 10000 nM in experiment [1]; greater than 1000 nM at MET kinase; greater than 10000 nM in experiment [2]; greater than 10000 nM in experiment [3]; 100 to 300 nM in experiment [4]; 30 to 100 nM in experiment [5].

For the compound `CN1CCN(c2cc(-c3cc4c(s3)Cc3c(-c5ccc6cnn(C)c6c5)n[nH]c3-4)ccn2)CC1` [Compound 87, 3-(1-methyl-1H-indazol-6-yl)-6-(2-(4-methyl-piperazin-1-yl)pyridin-4-yl)-1,4-dihydrothieno [2′,3′:4,5]cyclopenta [1,2-c]pyrazole], the IC50 in experiment [1] was greater than 10000 nM; on MET kinase, 300 to 1000 nM; in experiment [2] it was greater than 10000 nM; in experiment [3], greater than 10000 nM; in experiment [4], 300 to 1000 nM; in experiment [5] it was 30 to 100 nM.

Consider `Cn1ncc2ccc(-c3n[nH]c4c3Cc3sc(-c5ccc(CN6CCOCC6)c(F)c5F)cc3-4)cc21` [Compound 88, 4-(2,3-difluoro-4-(3-(1-methyl-1H-indazol-6-yl)-1,4-dihydrothieno [2′,3′:4,5]cyclopenta [1,2-c]pyrazol-6-yl)benzyl)morpholine], for which the IC50 is greater than 10000 nM in experiment [1]; greater than 1000 nM on MET kinase; greater than 10000 nM in experiment [2]; greater than 10000 nM in experiment [3]; 300 to 1000 nM in experiment [4]; 300 to 1000 nM in experiment [5].

On to `Cn1nnc2ccc(-c3n[nH]c4c3Cc3sc(-c5ccc(CN6CCOCC6)cc5)cc3-4)cc21` [Compound 89, 4-(4-(3-(1-methyl-1H-benzo[d][1,2,3]triazol-6-yl)-1,4-dihydrothieno [2′,3′:4,5]cyclopenta [1,2-c]pyrazol-6-yl)benzyl)morpholine], for which the IC50 in experiment [1] was greater than 10000 nM; on MET kinase, greater than 1000 nM; in experiment [2] it was greater than 10000 nM; in experiment [3], greater than 10000 nM; in experiment [4] it was 30 to 100 nM; in experiment [5], 30 to 100 nM.

For the compound `Cn1ncc2ccc(-c3n[nH]c4c3Cc3sc(-c5ccc(CN6CCOCC6)cc5OC(F)(F)F)cc3-4)cc21` [Compound 90, 4-(4-(3-(1-methyl-1H-indazol-6-yl)-1,4-dihydro-thieno[2′,3′:4,5]cyclopenta [1,2-c]pyrazol-6-yl)-3-(trifluoromethoxy)benzyl) morpholine], the IC50 in experiment [1] was greater than 10000 nM; on MET kinase, greater than 1000 nM; in experiment [2], greater than 10000 nM; in experiment [3], greater than 10000 nM; in experiment [4], 300 to 1000 nM; in experiment [5] it was 300 to 1000 nM.

For the compound `Cc1cc(CN2CCOCC2)ccc1-c1cc2c(s1)Cc1c(-c3ccc4cnn(C)c4c3)n[nH]c1-2` [Compound 91, 4-(3-methyl-4-(3-(1-methyl-1H-indazol-6-yl)-1,4-dihydrothieno [2′,3′:4,5]cyclopenta [1,2-c]pyrazol-6-yl)benzyl)morpholine], the IC50 was greater than 10000 nM in experiment [1]; greater than 1000 nM on MET kinase; 1000 to 10000 nM in experiment [2]; greater than 10000 nM in experiment [3]; 100 to 300 nM in experiment [4]; 100 to 300 nM in experiment [5].

Take `Cn1ncc2ccc(-c3n[nH]c4c3Cc3sc(-c5ccc(N)nc5)cc3-4)cc21` [Compound 92, 5-(3-(1-methyl-1H-indazol-6-yl)-1,4-dihydro-thieno[2′,3′:4,5]cyclopenta [1,2-c]pyrazol-6-yl) pyridin-2-amine]: the IC50 is 1000 to 10000 nM in experiment [1]; greater than 1000 nM on MET kinase; 1000 to 10000 nM in experiment [2]; greater than 10000 nM in experiment [3]; less than 30 nM in experiment [4]; less than 30 nM in experiment [5].

As to `CN(C)Cc1ccc(-c2cc3c(s2)Cc2c(-c4ccc5cnn(C)c5c4)n[nH]c2-3)cn1` [Compound 93, N,N-dimethyl-1-(5-(3-(1-methyl-1H-indazol-6-yl)-1,4-dihydrothieno [2′,3′:4,5]cyclopenta [1,2-c]pyrazol-6-yl)pyridin-2-yl)methanamine], the IC50 is greater than 10000 nM in experiment [1]; greater than 1000 nM at MET kinase; greater than 10000 nM in experiment [2]; greater than 10000 nM in experiment [3]; 100 to 300 nM in experiment [4]; 30 to 100 nM in experiment [5].

On to `CN(C)Cc1ccc(-c2cc3c(s2)Cc2c(-c4ccc5cnn(C)c5c4)n[nH]c2-3)cc1` [Compound 94, N,N-dimethyl-1-(4-(3-(1-methyl-1H-indazol-6-yl)-1,4-dihydrothieno [2′,3′:4,5]cyclopenta [1,2-c]pyrazol-6-yl)phenyl)methanamine], for which the IC50 in experiment [1] was 1000 to 10000 nM; at MET kinase, 300 to 1000 nM; in experiment [2], 1000 to 10000 nM; in experiment [3], 1000 to 10000 nM; in experiment [4], less than 30 nM; in experiment [5], less than 30 nM.

Regarding `Cn1ncc2ccc(-c3n[nH]c4c3Cc3sc(-c5ccc(CN6CCNCC6=O)cc5)cc3-4)cc21` [Compound 101, 1-(4-(3-(1-methyl-1H-indazol-6-yl)-1,4-dihydro-thieno[2′,3′:4,5]cyclopenta [1,2-c]pyrazol-6-yl)benzyl)piperazin-2-one], the IC50 in experiment [1] was greater than 10000 nM; on MET kinase it was greater than 1000 nM; in experiment [2], greater than 10000 nM; in experiment [3], greater than 10000 nM; in experiment [4], less than 30 nM; in experiment [5] it was less than 30 nM.

For the origin of these results see US12448394B2, “Heterocyclic pyrazole derivatives as type III receptor tyrosine kinase inhibitors” (DEVELOPMENT CENTER FOR BIOTECHNOLOGY, priority 2019, dated 2025).
